According to ChEMBL document CHEMBL1142746, “Triaryl bis-sulfones as cannabinoid-2 receptor ligands: SAR studies” (Bioorg Med Chem Lett, 2005):
pKi: −log10 of the molar value.

Columns and labels:
[1] = molecular target: Cannabinoid receptor (Homo sapiens) (UniProt P34972+P21554); experiment: Ratio of inhibition against Cannabinoid receptor 1 and Cannabinoid receptor 2; type: protein assay
Cannabinoid receptor 2 = Cannabinoid receptor 2 (Homo sapiens, UniProt P34972); experiment: Inhibition constant against Cannabinoid receptor 2
Chain of Cannabinoid receptor 2 (P34972 whole entry): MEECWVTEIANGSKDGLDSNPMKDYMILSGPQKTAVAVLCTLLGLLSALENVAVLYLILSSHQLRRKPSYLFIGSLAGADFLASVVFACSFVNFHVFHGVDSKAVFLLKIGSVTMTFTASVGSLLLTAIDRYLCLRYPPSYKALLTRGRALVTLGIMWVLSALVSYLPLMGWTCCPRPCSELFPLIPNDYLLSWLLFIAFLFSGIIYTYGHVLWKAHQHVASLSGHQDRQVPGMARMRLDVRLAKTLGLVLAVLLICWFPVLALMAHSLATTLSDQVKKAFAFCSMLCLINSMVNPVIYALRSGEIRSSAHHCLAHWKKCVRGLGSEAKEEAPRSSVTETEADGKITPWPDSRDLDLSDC

Chain of Cannabinoid receptor (Homo sapiens) (P21554 whole entry, looked up): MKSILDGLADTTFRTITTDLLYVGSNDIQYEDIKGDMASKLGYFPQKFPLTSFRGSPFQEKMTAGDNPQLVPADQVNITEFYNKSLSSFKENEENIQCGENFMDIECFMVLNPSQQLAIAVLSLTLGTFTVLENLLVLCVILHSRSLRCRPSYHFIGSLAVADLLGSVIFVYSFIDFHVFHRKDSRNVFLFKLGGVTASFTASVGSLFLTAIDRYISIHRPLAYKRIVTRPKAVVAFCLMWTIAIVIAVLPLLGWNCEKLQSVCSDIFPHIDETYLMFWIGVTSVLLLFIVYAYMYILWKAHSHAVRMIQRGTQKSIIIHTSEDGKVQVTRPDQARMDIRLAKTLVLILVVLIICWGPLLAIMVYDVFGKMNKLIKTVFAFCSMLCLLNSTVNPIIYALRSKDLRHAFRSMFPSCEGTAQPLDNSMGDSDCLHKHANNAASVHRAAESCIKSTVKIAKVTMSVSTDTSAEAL
Chain of Cannabinoid receptor (Homo sapiens) (P34972 whole entry, looked up): as the sequence (P34972 whole entry) above

SMILES	Selectivity [1]	pKi (Cannabinoid receptor 2)
C[C@H](NS(C)(=O)=O)c1ccc(Cc2ccc(C(F)(F)F)cc2S(=O)(=O)c2c(F)cccc2F)cc1	584	8.74
C[C@H](NS(C)(=O)=O)c1ccc(S(=O)(=O)c2ccc(OC3CCCC3)cc2S(=O)(=O)c2ccc(Cl)cc2)cc1	11	6.63
C[C@H](NS(C)(=O)=O)c1ccc(S(=O)(=O)c2ccc(Cl)cc2Cc2ccc(Cl)cc2)cc1	11	6.79
C[C@H](NS(C)(=O)=O)c1ccc(Cc2ccc(C(F)(F)F)cc2S(=O)(=O)c2cccc(F)c2)cc1	438	8.46
C[C@H](NS(C)(=O)=O)c1ccc(Cc2ccc(OC(F)(F)F)cc2S(=O)(=O)c2ccccc2F)cc1	1180	9.40
COc1ccc(S(=O)(=O)c2cc(OC)ccc2S(=O)(=O)c2ccc([C@H](C)NS(C)(=O)=O)cc2)cc1	2260	9.40
COc1ccc(S(=O)(=O)c2cc(OC)ccc2S(=O)(=O)c2ccc([C@@H](C)NS(C)(=O)=O)cc2)cc1	105	7.52
C[C@H](NS(C)(=O)=O)c1ccc(S(=O)(=O)c2ccc(Cl)cc2S(=O)(=O)c2cccc(Cl)c2)cc1	238	7.64
C=C(c1ccccc1F)c1cc(Cl)ccc1S(=O)(=O)c1ccc([C@H](C)NS(C)(=O)=O)cc1	17	6.61
COc1ccc(S(=O)(=O)c2cc(OC)ccc2Cc2ccc([C@H](C)NS(C)(=O)=O)cc2)cc1	1300	9.22
CCC(c1ccc([C@H](C)NS(C)(=O)=O)cc1)c1ccc(Cl)cc1S(=O)(=O)c1ccc(Cl)cc1 (stereo not given in full)	48	7.12
C[C@H](NS(C)(=O)=O)c1ccc(S(=O)(=O)c2ccc(Cl)cc2C(C)(O)c2ccc(Cl)cc2)cc1 (stereo not given in full)	25	6.64
C[C@H](NS(C)(=O)=O)c1ccc(Cc2ccc(OC(F)(F)F)cc2S(=O)(=O)c2cccc(C(F)(F)F)c2)cc1	27	7.46
COc1ccc(S(=O)(=O)c2cc(OC)ccc2S(=O)(=O)c2ccc(CNS(C)(=O)=O)cc2)cc1	2170	8.89
C[C@H](NS(C)(=O)=O)c1ccc(S(=O)(=O)c2ccc(O)cc2S(=O)(=O)c2ccc(Cl)cc2)cc1	2320	7.89
COc1ccc(S(=O)(=O)c2ccc([C@H](C)NS(C)(=O)=O)cc2)c(S(=O)(=O)c2ccc(Cl)cc2)c1	1150	9.05
C[C@H](NS(C)(=O)=O)c1ccc(S(=O)(=O)c2ccc(Cl)cc2Oc2ccc(Cl)cc2)cc1	3	6.01
COc1ccc(S(=O)(=O)c2cc(OC)ccc2S(=O)(=O)c2ccc(C(C)(C)NS(C)(=O)=O)cc2)cc1	282	8.22
C[C@H](NS(C)(=O)=O)c1ccc(Cc2ccc(Cl)cc2S(=O)(=O)c2ccc(Cl)cc2)cc1	188	8.17
C[C@H](NS(C)(=O)=O)c1ccc(S(=O)(=O)c2ccc(C(F)(F)F)cc2S(=O)(=O)c2ccccc2F)cc1	3550	9.05

SMILES	Selectivity [1]	pKi (Cannabinoid receptor 2)
C[C@H](NS(C)(=O)=O)c1ccc(S(=O)(=O)c2ccc(Cl)cc2C(=O)c2ccc(Cl)cc2)cc1	284	6.72
C[C@H](NS(C)(=O)=O)c1ccc(S(=O)(=O)c2ccc(Cl)cc2S(=O)(=O)c2ccccc2F)cc1	4390	9.00
COc1ccc(S(=O)(=O)c2ccc([C@H](C)NS(C)(=O)=O)cc2)c(S(=O)(=O)c2ccccc2)c1	2480	9.22
C[C@H](NS(C)(=O)=O)c1ccc(S(=O)(=O)c2ccccc2S(=O)(=O)c2ccccc2F)cc1	1450	8.05
COc1ccc(S(=O)(=O)c2cc(OC)ccc2C(=O)c2ccc([C@H](C)NS(C)(=O)=O)cc2)cc1	108	7.36
C=C(c1ccc([C@H](C)NS(C)(=O)=O)cc1)c1ccc(OC(F)(F)F)cc1S(=O)(=O)c1ccccc1F	19	7.07
C[C@H](NS(C)(=O)=O)c1ccc(S(=O)(=O)c2ccc(C(F)(F)F)cc2S(=O)(=O)c2ccc(Cl)cc2)cc1	558	8.10
C[C@H](NS(C)(=O)=O)c1ccc(S(=O)(=O)c2ccc(Cl)cc2S(=O)(=O)c2ccccc2)cc1	1940	8.70
CC(NS(C)(=O)=O)c1ccc(C(=O)c2ccc(OC(F)(F)F)cc2S(=O)(=O)c2ccccc2F)cc1 (stereo not given)	28	6.75
C[C@H](NS(C)(=O)=O)c1ccc(S(=O)(=O)c2ccccc2S(=O)(=O)c2ccc(Cl)cc2)cc1	127	7.24
C[C@H](NS(C)(=O)=O)c1ccc(S(=O)(=O)c2ccc(Cl)cc2S(=O)(=O)c2ccc(Cl)cc2)cc1	687	8.00
CO/N=C(\c1ccc([C@H](C)NS(C)(=O)=O)cc1)c1ccc(Cl)cc1S(=O)(=O)c1ccc(Cl)cc1	5	6.39
CC(NS(C)(=O)=O)c1ccc(C(=O)c2ccc(Cl)cc2S(=O)(=O)c2ccc(Cl)cc2)cc1 (stereo not given)	16	6.39
C[C@H](NS(C)(=O)=O)c1ccc(S(=O)(=O)c2ccc(Cl)cc2S(=O)(=O)c2ccccc2Cl)cc1	1780	8.22
C[C@H](NS(C)(=O)=O)c1ccc(Cc2ccc(C(F)(F)F)cc2S(=O)(=O)c2ccccc2F)cc1	674	9.00
C[C@H](NS(C)(=O)=O)c1ccc(Cc2ccc(OC(F)(F)F)cc2S(=O)(=O)c2ccccc2OC(F)(F)F)cc1	60	7.80
C[C@H](NS(C)(=O)=O)c1ccc(S(=O)(=O)c2ccc(Cl)cc2C(C)(O)c2ccccc2F)cc1 (stereo not given in full)	111	7.11
C[C@H](NS(C)(=O)=O)c1ccc(S(=O)(=O)c2ccc(Cl)cc2S(=O)(=O)c2ccccc2OC(F)(F)F)cc1	134	6.89
Cc1ccc(S(=O)(=O)c2ccc([C@H](C)NS(C)(=O)=O)cc2)c(S(=O)(=O)c2ccccc2F)c1	1740	9.30
C[C@H](NS(C)(=O)=O)c1ccc(S(=O)(=O)c2ccc(Cl)cc2Nc2ccc(Cl)cc2)cc1	5	6.56
